From US20080254993A1, “Use of abscisic acid analogs to enhance growth control” (priority 2007, published 2008)

Tests used:
Kentucky bluegrass = experiment: Greenhouse study on Kentucky bluegrass: turfgrass height, clip weight, turfgrass quality (Example 1); type: in vivo
Experimental: Greenhouse studies were conducted at the Research Farm of Valent BioSciences Corporation (Long Grove, Ill.). Grasses were grown in pots (18 cm in diameter and 18 cm in height) filled with Promix BX (available from Premier Horticulture Inc. Quakertown, Pa.). Grass was irrigated daily by an overhead irrigation system. The irrigation system was set up with multiple Tornado Mist Spray Heads (10 GPH at 40 PSI-Wetted diameter, NDS/Raindrip, Woodland Hills, Calif.). Spray heads were 1-meter apart from each other and 75 cm above grass canopy. Grass was cut with a scissor at 2.5 cm height and fertilizer (1 g/L all purpose fertilizer 20-20-20, available from The Scotts Company, Marysville, Ohio) was applied once per week.
(§1) Chemical solutions were prepared with distilled water. Tween 20 (0.05% v/v) was used as the surfactant when necessary. Trinexapac-ethyl (commercial product Primo Maxx, 11.3% active ingredient) was purchased from Syngenta Crop Protection Inc. (Greensboro, N.C.). ABA analogs, 8′ acetylene-ABA, acid (PBI-524), 8′ acetylene-ABA, ester (PBI-429), 8′ cyclopropane ester (PBI-696), or Tetralone, first carbon tail acetylene, ester (PBI-702), were obtained from Plant Biotechnology Institute, National Research Council of Canada (Saskatoon, Saskatchewan, Canada).
(§2) Chemical solutions were foliar applied to the turfgrass canopy at the rate of 4-gallons/1000 square foot (or 0.163 L/m^−2) immediately after finishing the preparation of solutions. After treatment, turfgrasses were arranged in a randomized complete block experimental design. Turfgrass quality, turfgrass height or clip fresh weight was measured on assigned dates. Turfgrass quality was visually rated on a 0-9 scale based on the color, uniformity, and density of the grass with 0 as the worst and 9 as the best. Turfgrass height was measured as the distance between canopy surface and soil. Clippings were collected form each plot; all plots were cut to a uniform height.
(§3) All experiments were randomized complete block experimental design. Data were analyzed by analysis of variance. Duncan's new multiple range tests at α=0.05 were used for mean separations.
Kentucky bluegrass sod was purchased from Deak sod farms, Inc. (Union Grove, Wis.). Grass was grown in the greenhouse for 94 days for establishment. Turfgrass was treated with one time foliar application of 50 ppm PBI-524, PBI-429, PBI-696 or PBI-702 alone or in combination with 250 ppm trinexapac-ethyl. The turfgrass was cut every 7 days. Turfgrass quality, turfgrass height, and clip weight were measured on days 7 and 35 after treatment.

creeping bentgrass = experiment: Golf course green field study on creeping bentgrass with PBI-429: turfgrass height, soil moisture, turf quality (Example 2); type: in vivo, Penncross creeping bentgrass; settings: for Soil moisture / Turfgrass height / Turf quality: 25 ppm trinexapac-ethyl alone; for Turfgrass height (in words) / Soil moisture (in words): trinexapac-ethyl 25 ppm, PBI-429 50 ppm, alone or combined; for Turf quality: visual 0-9 scale, 9 best
Experimental: Field studies were conducted at the nursery green or the practice green at Countryside golf course (Mundelein, Ill.). Both greens were sand based and growing Penncross creeping bentgrass. Grass was managed with typical Illinois golf course management practices.
as §1, §2, §3
Trinexapac-ethyl (25 ppm) or PBI-429 (50 ppm) were one time foliar applied alone or in combination to creeping bentgrass in the golf course green to investigate their effect on turfgrass quality, growth inhibition and soil moisture.

tomato = experiment: Tomato plant height, growth rate and leaf number, greenhouse (Example 5); type: in vivo, Tomato (variety: Rutgers)
Excerpt: The effect of ABA analog (PBI-429) and trinexapac-ethyl combinations on transpiration and growth inhibition of dicotyledonous (tomato) was also examined in the greenhouse condition. Tomato (variety: Rutgers) seeds were sown in 18-cell flat filled with Promix PGX (available from Premier Horticulture Inc. Quakertown, Pa.) and grown for 3 weeks to allow for germination and initial growth. Plants were then transplanted into pots (18 cm in diameter and 18 cm in height), filled with Promix BX (available from Premier Horticulture Inc. Quakertown, Pa.), and grown for one week before the chemical treatment. Plants received daily irrigation and weekly fertilizer (1 g/L all purpose fertilizer 20-20-20, available from The Scotts Company, Marysville, Ohio). During the chemical treatment, a 24 mL (4 mL/plant) solution was foliar sprayed on the tomato canopy. Leaf transpiration rates were measured using a LI-1600 Steady State Porometer (LI-Cor, Lincoln, Nebr.) at 3, 5, 7, 10, and 14 days after treatment. The leaf transpiration rate was normalized to the percentage of control plant to minimize the experimental errors caused by environmental factors. Plant height was measured at 0, 3, 5, 7, 10 and 14 days after treatment. The growth rate was calculated based on the changes of plant height in certain intervals. The plants were harvested and the leaf number was counted at 14 days after treatment.

[1] = 7 days after treatment, 250 ppm trinexapac-ethyl alone
[2] = 35 days after treatment, 250 ppm trinexapac-ethyl alone
[3] = 250 ppm trinexapac-ethyl, 3 days after treatment
[4] = 250 ppm trinexapac-ethyl, 5 days after treatment
[5] = 250 ppm trinexapac-ethyl, 7 days after treatment
[6] = 250 ppm trinexapac-ethyl, 10 days after treatment
[7] = 250 ppm trinexapac-ethyl, 14 days after treatment
[8] = 500 ppm trinexapac-ethyl, 3 days after treatment
[9] = 500 ppm trinexapac-ethyl, 5 days after treatment
[10] = 500 ppm trinexapac-ethyl, 7 days after treatment
[11] = 500 ppm trinexapac-ethyl, 10 days after treatment
[12] = 500 ppm trinexapac-ethyl, 14 days after treatment
[13] = 1000 ppm trinexapac-ethyl, 3 days after treatment
[14] = 1000 ppm trinexapac-ethyl, 5 days after treatment
[15] = 1000 ppm trinexapac-ethyl, 7 days after treatment
[16] = 1000 ppm trinexapac-ethyl, 10 days after treatment
[17] = 1000 ppm trinexapac-ethyl, 14 days after treatment
[18] = 2000 ppm trinexapac-ethyl, 3 days after treatment
[19] = 2000 ppm trinexapac-ethyl, 5 days after treatment
[20] = 2000 ppm trinexapac-ethyl, 7 days after treatment
[21] = 2000 ppm trinexapac-ethyl, 10 days after treatment
[22] = 2000 ppm trinexapac-ethyl, 14 days after treatment
[23] = PBI-429 25-200 ppm, trinexapac-ethyl 250-2000 ppm, alone or combined

CCOC(=O)C1CC(=O)C(=C(O)C2CC2)C(=O)C1 (stereo not shown) [trinexapac-ethyl, reference compound]
Clip Weight (Kentucky bluegrass; [1]): 0.5 g
Turfgrass height (Kentucky bluegrass; [1]): 6.0 cm
Turfgrass quality (Kentucky bluegrass; 7 days after treatment, 250 ppm trinexapac-ethyl alone, visual 0-9 scale, 9 best): 6.6
Turfgrass height and clip weight compared to the control (in words) (Kentucky bluegrass; 7 days after treatment, trinexapac-ethyl 250 ppm, PBI-524 or PBI-429 50 ppm, alone or combined): reduced turfgrass height and clip weight compared to the control
Clip Weight (Kentucky bluegrass; [2]): 1.7 g
Turfgrass height (Kentucky bluegrass; [2]): 7.2 cm
Soil moisture (creeping bentgrass; 4 days after treatment): 11.2%
Turfgrass height (creeping bentgrass; 4 days after treatment): 7.3 mm
Turfgrass height (in words) (creeping bentgrass; 4 days after treatment): did not reduce creeping bentgrass height
Soil moisture (creeping bentgrass; 7 days after treatment): 12.7%
Turfgrass height (creeping bentgrass; 7 days after treatment): 6.5 mm
Turf quality (creeping bentgrass; 7 days after treatment): 7.3
Soil moisture (in words) (creeping bentgrass; 7 days after treatment): increase soil moisture
Turfgrass height (in words) (creeping bentgrass; 7 days after treatment): reduced turfgrass height similarly
Soil moisture (creeping bentgrass; 38 days after treatment): 12.4%
Turfgrass height (creeping bentgrass; 38 days after treatment): 6.0 mm
Turf quality (creeping bentgrass; 38 days after treatment): 7.6
Soil moisture (in words) (creeping bentgrass; 38 days after treatment): no longer effective
Turfgrass height (in words) (creeping bentgrass; 38 days after treatment): no longer effective
Plant height (tomato; 250 ppm trinexapac-ethyl, 0 days after treatment): 6.4 cm
Growth rate (tomato; [3]): 1.2 cm/day
Plant height (tomato; [3]): 9.9 cm
Growth rate (tomato; [4]): 1.0 cm/day
Plant height (tomato; [4]): 11.9 cm
Growth rate (tomato; [5]): 1.6 cm/day
Plant height (tomato; [5]): 15.1 cm
Growth rate (tomato; [6]): 1.5 cm/day
Plant height (tomato; [6]): 19.6 cm
Growth rate (tomato; [7]): 1.8 cm/day
Leaf number (tomato; [7]): 11.0
Plant height (tomato; [7]): 26.9 cm
Plant height (tomato; 500 ppm trinexapac-ethyl, 0 days after treatment): 6.5 cm
Growth rate (tomato; [8]): 0.9 cm/day
Plant height (tomato; [8]): 9.3 cm
Growth rate (tomato; [9]): 0.8 cm/day
Plant height (tomato; [9]): 10.9 cm
Growth rate (tomato; [10]): 1.2 cm/day
Plant height (tomato; [10]): 13.3 cm
Growth rate (tomato; [11]): 1.4 cm/day
Plant height (tomato; [11]): 17.4 cm
Growth rate (tomato; [12]): 1.8 cm/day
Leaf number (tomato; [12]): 11.0
Plant height (tomato; [12]): 24.4 cm
Plant height (tomato; 1000 ppm trinexapac-ethyl, 0 days after treatment): 6.5 cm
Growth rate (tomato; [13]): 0.7 cm/day
Plant height (tomato; [13]): 8.9 cm
Growth rate (tomato; [14]): 0.7 cm/day
Plant height (tomato; [14]): 10.3 cm
Growth rate (tomato; [15]): 1.0 cm/day
Plant height (tomato; [15]): 12.3 cm
Growth rate (tomato; [16]): 1.2 cm/day
Plant height (tomato; [16]): 15.8 cm
Growth rate (tomato; [17]): 1.8 cm/day
Leaf number (tomato; [17]): 11.0
Plant height (tomato; [17]): 22.8 cm
Plant height (tomato; 2000 ppm trinexapac-ethyl, 0 days after treatment): 6.7 cm
Growth rate (tomato; [18]): 0.6 cm/day
Plant height (tomato; [18]): 7.9 cm
Growth rate (tomato; [19]): 0.6 cm/day
Plant height (tomato; [19]): 9.1 cm
Growth rate (tomato; [20]): 0.8 cm/day
Plant height (tomato; [20]): 10.7 cm
Growth rate (tomato; [21]): 1.0 cm/day
Plant height (tomato; [21]): 13.6 cm
Growth rate (tomato; [22]): 1.2 cm/day
Leaf number (tomato; [22]): 10.8
Plant height (tomato; [22]): 18.3 cm
Tomato leaf number (in words) (tomato; 14 days after treatment, PBI-429 25-200 ppm, trinexapac-ethyl 250-2000 ppm, alone or combined): did not change the tomato leaf number
Tomato growth rate in terms of plant height (in words) (tomato; [23]): inhibited growth rate
Tomato plant height (in words) (tomato; [23]): decreased tomato plant height
